Reference: patent US10561638B2, “Methods for treating dependence” (Biotie Therapies, Inc., priority 2007, dated 2020)

Experiments:
α1A adrenoceptors = α1A adrenoceptors (Homo sapiens, UniProt P35348); test: Radioligand binding assay
Protocol: (§1) The activity of nepicastat at twelve selected enzymes and receptors was determined using established assays. Binding data were analyzed by iterative curve-fitting to a four parameter logistic equation. Ki values were calculated from IC50 values using the Cheng-Prusoff equation. Enzyme inhibitory activity was expressed as IC50 (concentration required to produce 50% inhibition of enzyme activity).
(§2) The activity of nepicastat at eleven different enzymes was determined using established assays. The affinity of nepicastat for thirteen selected receptors was determined by radioligand binding assays using standard filtration techniques and membrane preparations. Binding data were analyzed by iterative curve fitting to a four parameter logistic equation. Ki values were calculated using the Cheng-Prusoff equation.

α1B adrenoceptors = α1B adrenoceptors (Homo sapiens, UniProt P35368); test: Radioligand binding assay
Protocol: as §1, §2

α2A adrenoceptors = α2A adrenoceptors (Homo sapiens, UniProt P08913); test: Radioligand binding assay
Protocol: as §1, §2

β2 adrenoceptors = β2 adrenoceptors (Homo sapiens, UniProt P07550); test: Radioligand binding assay
Protocol: as §1, §2

μ opioid receptors = μ opioid receptors (Homo sapiens, UniProt P35372); test: Radioligand binding assay
Protocol: as §1, §2

β1 adrenoceptors = β1 adrenoceptors (Homo sapiens, UniProt P08588); test: Radioligand binding assay
Protocol: as §1, §2

α2B adrenoceptors = α2B adrenoceptors (Homo sapiens, UniProt P18089); test: Radioligand binding assay
Protocol: as §1, §2

[1] = system: plasma dopamine/norepinephrine ratio, urinary dopamine; test: Plasma and urinary catecholamines in normal volunteers; format: in vivo, human
Protocol: Nepicastat reduces the conversion of dopamine to norepinephrine. Basic tests for nepicastat activity measure the levels of plasma or urinary dopamine or the ratio of dopamine to norepinephrine. Nepicastat treatment can increase plasma or urinary levels of dopamine or increase the dopamine/norepinephrine ratio in plasma or urine.
Shown in FIG. 5, are the levels in urinary dopamine levels in normal volunteers after 24 hour treatment with nepicastat.
Urinary dopamine levels increased after 10 days of dosing with both 40 mg and 200 mg of nepicastat.

[2] = system: normotensive Wistar-Kyoto rats; test: Blood pressure in conscious, restrained Wistar-Kyoto rats; format: in vivo; details: 10 mg/kg
Text: To summarize together, nepicastat causes a decrease in blood pressure in both SHRs and normotensive rats, though the antihypertensive effect is more pronounced in SHRs.

normotensive Wistar rats = test: 7 day radio-telemetry study in normotensive Wistar rats
Protocol: Male Crl:COBS(WI)BR rats of 15 weeks old were used.
Both nepicastat and hydralazine were prepared in water with traces of Tween 80. All doses were given orally to the rat in 10 ml/kg and were expressed as free base equivalents.
All values were expressed as means±SEM. Statistical significance was defined as a p level of less than 0.05.
Body weights were recorded daily.

[3] = system: blood pressure responses to norepinephrine, isoproterenol and acetylcholine; test: Responses to autonomic agents in anesthetized, instrumented dogs; format: in vivo, beagle dogs; details: single intraduodenal dose of 60 mg/kg
Protocol: Beagle dogs were administered single intraduodenal doses of 0 (vehicle) or 60 mg/kg of nepicastat through an intraduodenal cannula. The vehicle-control group consisted of 1 male and 1 female, and the nepicastat-treatment group consisted of 2 males and 2 females. Each animal was surgically instrumented while anesthetized with isoflurane gas. Before dosing with test formulation, the average blood pressure responses to intravenous doses of autonomic agents, norepinephrine (3 μg/kg), isoproterenol (0.3 μg/kg), and acetylcholine (10 μg/kg), were evaluated. A single bolus dose of test formulation was then administered to each animal and the blood pressure responses to the autonomic agents were evaluated approximately 1, 2, and 3 hours after dosing. At the completion of the experiment, each dog was euthanatized and removed from the study. […]
Systolic, diastolic, and mean aortic blood pressures were evaluated just before administration (baseline) and at the time of peak response to each agent (maximum change from baseline). Systolic, diastolic, and mean aortic blood pressures, and blood pH, PCO2, and PO2 were evaluated before dosing and approximately 50, 110, and 170 minutes after dosing with test formulation. […]

normal dogs = test: Cardiovascular effects of i.v. dosing in dogs; format: in vivo; details: anesthetized dogs, 1-10 mg/kg i.v., up to five hours
protein kinase C = test: Enzyme selectivity assay; format: biochemical
Protocol: as §1, §2

phosphodiesterase III = test: Enzyme selectivity assay; format: biochemical
Protocol: as §1, §2

HMG-CoA reductase = HMG-CoA reductase (Homo sapiens, UniProt P04035); test: Enzyme selectivity assay; format: biochemical
Protocol: as §1, §2

tyrosine hydroxylase = tyrosine hydroxylase (Homo sapiens, UniProt P07101); test: Enzyme selectivity assay; format: biochemical
Protocol: as §1, §2

[4] = biological target: acyl CoA-cholesterol acyl transferase; test: Enzyme selectivity assay; format: biochemical
Protocol: as §1, §2

nitric oxide synthase = test: Enzyme selectivity assay; format: biochemical
Protocol: as §1, §2

phospholipase A2 = test: Enzyme selectivity assay; format: biochemical
Protocol: as §1, §2

neutral endopeptidase = neutral endopeptidase (Homo sapiens, UniProt P08473); test: Enzyme selectivity assay; format: biochemical
Protocol: as §1, §2

cyclooxygenase-I = cyclooxygenase-I (Homo sapiens, UniProt P23219); test: Enzyme selectivity assay; format: biochemical
Protocol: as §1, §2

acetyl CoA synthetase = test: Enzyme selectivity assay; format: biochemical
Protocol: as §1, §2

[5] = biological target: Ca2+/calmodulin protein kinase II; test: Enzyme selectivity assay; format: biochemical
Protocol: as §1, §2

α1B adrenoceptors, sequence (P35368 whole entry): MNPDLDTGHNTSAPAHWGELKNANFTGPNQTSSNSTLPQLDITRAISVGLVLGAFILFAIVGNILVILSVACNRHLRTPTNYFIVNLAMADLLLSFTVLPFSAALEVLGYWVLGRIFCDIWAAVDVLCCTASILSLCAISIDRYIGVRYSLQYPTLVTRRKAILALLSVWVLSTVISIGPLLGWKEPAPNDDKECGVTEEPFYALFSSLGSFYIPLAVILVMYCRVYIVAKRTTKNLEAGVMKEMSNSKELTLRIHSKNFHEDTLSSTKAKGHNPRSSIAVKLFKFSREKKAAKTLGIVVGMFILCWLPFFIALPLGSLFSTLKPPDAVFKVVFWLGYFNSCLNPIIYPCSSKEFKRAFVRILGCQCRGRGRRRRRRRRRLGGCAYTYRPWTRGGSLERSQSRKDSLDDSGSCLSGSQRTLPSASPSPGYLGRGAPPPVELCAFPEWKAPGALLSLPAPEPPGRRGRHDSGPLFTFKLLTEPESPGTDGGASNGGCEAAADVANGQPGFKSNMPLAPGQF
cyclooxygenase-I, sequence (P23219 24-599): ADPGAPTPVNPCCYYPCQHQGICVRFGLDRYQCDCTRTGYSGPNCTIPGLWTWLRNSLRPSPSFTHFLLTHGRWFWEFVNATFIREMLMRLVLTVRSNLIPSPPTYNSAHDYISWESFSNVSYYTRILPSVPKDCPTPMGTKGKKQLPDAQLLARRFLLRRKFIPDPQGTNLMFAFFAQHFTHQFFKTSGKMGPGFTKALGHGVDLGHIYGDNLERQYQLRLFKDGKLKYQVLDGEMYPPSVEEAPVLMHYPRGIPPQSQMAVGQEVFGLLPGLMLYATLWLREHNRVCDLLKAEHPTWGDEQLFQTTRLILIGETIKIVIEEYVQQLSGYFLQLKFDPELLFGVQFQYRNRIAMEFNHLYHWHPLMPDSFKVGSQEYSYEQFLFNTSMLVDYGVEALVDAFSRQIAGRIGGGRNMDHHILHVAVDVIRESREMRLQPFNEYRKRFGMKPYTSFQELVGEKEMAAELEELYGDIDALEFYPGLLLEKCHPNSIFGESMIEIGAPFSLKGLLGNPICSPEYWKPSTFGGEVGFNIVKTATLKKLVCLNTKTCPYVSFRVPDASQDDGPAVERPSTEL
β1 adrenoceptors, sequence (P08588 whole entry): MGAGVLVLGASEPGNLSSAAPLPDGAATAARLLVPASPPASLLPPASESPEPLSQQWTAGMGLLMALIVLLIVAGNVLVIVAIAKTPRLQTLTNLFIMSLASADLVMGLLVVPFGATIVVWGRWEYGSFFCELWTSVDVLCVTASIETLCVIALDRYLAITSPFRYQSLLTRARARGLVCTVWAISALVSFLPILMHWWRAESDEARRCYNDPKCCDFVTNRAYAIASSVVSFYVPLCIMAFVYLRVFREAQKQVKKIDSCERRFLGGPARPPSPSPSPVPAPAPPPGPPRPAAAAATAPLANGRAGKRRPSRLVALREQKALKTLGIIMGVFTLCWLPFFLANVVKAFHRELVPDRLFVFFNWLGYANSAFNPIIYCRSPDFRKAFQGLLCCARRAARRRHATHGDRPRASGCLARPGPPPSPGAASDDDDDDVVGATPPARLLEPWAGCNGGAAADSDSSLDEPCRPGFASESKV
β2 adrenoceptors, sequence (P07550 whole entry): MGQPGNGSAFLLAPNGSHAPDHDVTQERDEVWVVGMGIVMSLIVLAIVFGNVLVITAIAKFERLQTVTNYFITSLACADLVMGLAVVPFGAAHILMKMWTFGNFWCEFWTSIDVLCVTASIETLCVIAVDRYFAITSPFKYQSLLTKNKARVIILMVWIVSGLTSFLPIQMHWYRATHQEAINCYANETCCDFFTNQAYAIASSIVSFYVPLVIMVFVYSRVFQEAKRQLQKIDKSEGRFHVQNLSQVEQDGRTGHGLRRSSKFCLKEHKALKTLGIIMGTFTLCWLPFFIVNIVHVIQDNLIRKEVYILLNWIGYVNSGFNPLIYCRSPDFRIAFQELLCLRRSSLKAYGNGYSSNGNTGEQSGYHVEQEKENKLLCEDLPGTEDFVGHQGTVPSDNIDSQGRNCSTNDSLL
neutral endopeptidase, sequence (P08473 whole entry, species assumed): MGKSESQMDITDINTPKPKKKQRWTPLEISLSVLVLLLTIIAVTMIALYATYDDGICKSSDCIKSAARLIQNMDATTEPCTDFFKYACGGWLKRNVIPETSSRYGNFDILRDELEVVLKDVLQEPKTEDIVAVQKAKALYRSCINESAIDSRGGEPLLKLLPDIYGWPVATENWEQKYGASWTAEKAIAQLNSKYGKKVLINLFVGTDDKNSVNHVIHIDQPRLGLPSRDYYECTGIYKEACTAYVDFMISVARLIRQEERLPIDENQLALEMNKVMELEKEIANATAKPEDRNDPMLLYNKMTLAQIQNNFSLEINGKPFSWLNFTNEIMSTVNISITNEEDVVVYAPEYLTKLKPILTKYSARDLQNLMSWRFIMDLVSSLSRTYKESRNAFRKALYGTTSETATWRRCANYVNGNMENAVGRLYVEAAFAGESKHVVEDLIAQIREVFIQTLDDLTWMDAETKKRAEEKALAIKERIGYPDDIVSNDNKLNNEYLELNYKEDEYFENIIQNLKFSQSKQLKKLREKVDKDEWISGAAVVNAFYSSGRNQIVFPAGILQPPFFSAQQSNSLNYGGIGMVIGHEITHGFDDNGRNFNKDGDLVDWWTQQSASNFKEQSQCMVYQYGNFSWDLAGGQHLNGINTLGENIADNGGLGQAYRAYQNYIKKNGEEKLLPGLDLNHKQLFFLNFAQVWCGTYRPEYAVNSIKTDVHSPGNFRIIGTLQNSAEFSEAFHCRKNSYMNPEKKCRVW
μ opioid receptors, sequence (P35372 whole entry): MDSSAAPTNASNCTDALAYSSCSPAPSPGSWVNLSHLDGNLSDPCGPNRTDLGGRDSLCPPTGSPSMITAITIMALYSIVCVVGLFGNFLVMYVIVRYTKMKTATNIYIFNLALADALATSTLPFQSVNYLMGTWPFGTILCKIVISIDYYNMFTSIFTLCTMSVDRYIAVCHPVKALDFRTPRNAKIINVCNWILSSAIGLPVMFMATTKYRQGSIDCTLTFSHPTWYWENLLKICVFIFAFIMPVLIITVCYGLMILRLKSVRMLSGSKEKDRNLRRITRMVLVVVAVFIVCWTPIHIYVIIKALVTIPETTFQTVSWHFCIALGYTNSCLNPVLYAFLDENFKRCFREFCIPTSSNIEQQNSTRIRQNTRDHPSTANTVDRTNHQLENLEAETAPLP
α1A adrenoceptors, sequence (P35348 whole entry): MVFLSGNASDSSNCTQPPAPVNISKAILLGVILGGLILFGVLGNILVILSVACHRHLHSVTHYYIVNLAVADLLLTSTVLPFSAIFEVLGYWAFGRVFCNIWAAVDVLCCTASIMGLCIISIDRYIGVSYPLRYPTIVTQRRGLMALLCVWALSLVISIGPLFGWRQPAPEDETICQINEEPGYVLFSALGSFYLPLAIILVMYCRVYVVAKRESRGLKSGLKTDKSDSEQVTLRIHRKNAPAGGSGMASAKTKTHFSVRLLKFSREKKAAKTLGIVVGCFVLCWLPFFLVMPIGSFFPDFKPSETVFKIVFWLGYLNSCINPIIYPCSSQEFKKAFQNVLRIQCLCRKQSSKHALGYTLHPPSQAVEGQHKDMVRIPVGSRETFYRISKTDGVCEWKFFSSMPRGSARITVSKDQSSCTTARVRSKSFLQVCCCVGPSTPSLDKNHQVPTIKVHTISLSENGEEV
α2A adrenoceptors, sequence (P08913 whole entry): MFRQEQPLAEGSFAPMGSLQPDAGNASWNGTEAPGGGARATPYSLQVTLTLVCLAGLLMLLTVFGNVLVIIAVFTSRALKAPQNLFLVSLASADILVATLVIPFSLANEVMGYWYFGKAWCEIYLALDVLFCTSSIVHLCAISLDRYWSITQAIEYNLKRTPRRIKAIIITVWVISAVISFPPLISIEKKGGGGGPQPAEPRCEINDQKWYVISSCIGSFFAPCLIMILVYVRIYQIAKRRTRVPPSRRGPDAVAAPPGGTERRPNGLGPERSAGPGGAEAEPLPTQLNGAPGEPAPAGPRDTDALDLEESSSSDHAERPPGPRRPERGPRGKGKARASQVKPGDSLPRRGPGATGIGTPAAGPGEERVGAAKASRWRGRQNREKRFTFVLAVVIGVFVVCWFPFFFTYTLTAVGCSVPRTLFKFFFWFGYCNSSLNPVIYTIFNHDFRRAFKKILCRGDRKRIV
α2B adrenoceptors, sequence (P18089 whole entry): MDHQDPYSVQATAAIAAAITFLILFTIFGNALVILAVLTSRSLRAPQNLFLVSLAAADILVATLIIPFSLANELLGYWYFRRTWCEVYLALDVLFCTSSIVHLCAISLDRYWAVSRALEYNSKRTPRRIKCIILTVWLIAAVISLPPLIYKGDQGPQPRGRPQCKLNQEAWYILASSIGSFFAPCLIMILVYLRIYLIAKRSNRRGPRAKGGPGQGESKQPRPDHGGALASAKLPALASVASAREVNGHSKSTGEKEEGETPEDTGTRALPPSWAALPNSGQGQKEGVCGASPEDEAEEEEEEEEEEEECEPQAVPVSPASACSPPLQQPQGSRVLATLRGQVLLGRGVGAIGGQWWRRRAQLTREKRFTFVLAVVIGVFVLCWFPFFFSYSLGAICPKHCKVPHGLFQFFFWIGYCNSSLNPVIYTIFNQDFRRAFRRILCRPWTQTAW

For `Cl.NCc1c[nH]c(=S)n1[C@H]1CCc2c(F)cc(F)cc2C1` [nepicastat, (S)-5-Aminomethyl-1-(5,7-difluoro-1,2,3,4-tetrahydronaphth-2-yl)-2,3-dihydro-2-thioxo-1H-imidazole hydrochloride], the Ki (α1A adrenoceptors) was over 10 µM, the Ki (α1B adrenoceptors) was over 10 µM and the Ki (α2A adrenoceptors) was over 10 µM. It also gave a Ki (β2 adrenoceptors) of over 10 µM, a Ki (μ opioid receptors) of over 10 µM and a Ki (β1 adrenoceptors) of over 10 µM. The Ki (α2B adrenoceptors) was over 10 µM, the urinary dopamine levels ([1]; 40 mg and 200 mg, after 10 days of dosing) was “increased” and the “mean supine plasma dopamine/norepinephrine ratio vs placebo” value ([1]; 200 mg) was “significant increase”. The “decrease in blood pressure 4 hours after dosing” value [2] was −13 mmHg, the “peak decrease in blood pressure” value (normotensive Wistar rats; 30 mg/kg/d, day 2) was −10 mmHg and the “peak antihypertensive response on day 1” value (normotensive Wistar rats; 100 mg/kg, 22 hr after dosing) was −11 mmHg. For the same molecule, the “predose vs postdose blood pressure responses to autonomic agents” value [3] was “No treatment-related differences”, the cardiovascular effects (normal dogs) was “no cardiovascular effects” and the IC50 (protein kinase C) was over 10 µM. For the same molecule, the IC50 (phosphodiesterase III) was over 10 µM, the IC50 (HMG-CoA reductase) was over 10 µM and the IC50 (tyrosine hydroxylase) was over 10 µM. It also gave an IC50 [4] of over 10 µM, an IC50 (nitric oxide synthase) of over 10 µM and an IC50 (phospholipase A2) of over 10 µM. It also gave an IC50 (neutral endopeptidase) of over 10 µM, an IC50 (cyclooxygenase-I) of over 10 µM and an IC50 (acetyl CoA synthetase) of over 10 µM. For the same molecule, the IC50 [5] was over 10 µM.
